Legend:
[1] = test system: MIA PaCa-2 cells; assay: Crystal violet cell proliferation assay; assay type: cell-based; conditions: Homo sapiens
Excerpt: Survivin is an anti-cell death gene that confers resistance of cancer cells to therapeutic agents. […] However, SV40-NLS-QD-siRNA nanocassettes could not be used for in vivo delivery due to the lack of specificity. Inhibition of survivin expression led to the activation of the apoptotic cell death since a high level of active caspase 3 (17 KDa fragments) was detected in those cell groups by Western blot analysis (FIG. 6B). Targeted internalization of hATF QD-survivin siRNA expressing nanocassettes were further confirmed in the MIA PaCa-2 cell line (FIG. 6C).
The effect of survivin gene silencing using hATF-QD-Survivin siRNA expressing nanocassettes was examined on cell sensitivity to chemotherapy drugs. […] Pancreatic cancer cells have a low sensitivity to free gemcitabine treatment and 60% of viable cells were detected by cell proliferation assay 72 h following 100 μM of gemcitabine treatment (FIG. 7A).
Crystal violet assay was used to determine the percentage of viable cells. […] Percentage of viable cells in the experimental groups was determined by measurements O.D. at 590 nm using Spectra Max Plus (Molecular Devices, Sunnyvale, Calif.). […] Cell lysates were analyzed for their levels of caspase 3-like activity, which is generated by caspases 3, 7, and 10, using an Ac-DEVD-AFC substrate (Calbiochem, San Diego, Calif.). […]

[2] = test system: MCF-10DCIS human breast cancer cells; assay: Target specificity / intracellular delivery of nanoparticles, fluorescence microscopy; assay type: cell-based; conditions: 15 pmol of QDs, 24 h
Description: (§1) To further quantify gene silencing efficiency in tumor cells in vitro and the detection of dynamic changes in the inhibition of gene expression in animal tumor models in vivo using bioluminescence imaging, U6-luciferase (Luc) siRNA expressing nanocassettes from p-Silencer-firefly luciferase shRNA plasmid were amplified. […] The inhibitory effect was enhanced as the copy number of Luc siRNA nanocassettes on each QD increased from 2 to 10 or 20 (FIG. 4B).
Cells were plated in 24-well culture plates for 24 h and then incubated with various nanoparticles at an equal molar concentration (15 pmol of QDs) for 24 h. Control unconjugated DNA cassettes or plasmids were transfected into cells. As a delivery efficiency control, siRNA expressing nanocassettes were also conjugated to QDs with the NLS peptides from SV40 virus, CGGGPKKKRKVE (SEQ ID NO: 10). The peptide sequence was provided by Dr. Steven Dowdy at University of California, San Diego. The SV-40-NLS peptides were synthesized by Genscript USA Inc. (Piscataway, N.J.). Culture plates were then examined using an inverted Olympus fluorescence microscope.

[3] = test system: firefly luciferase gene stably transfected human breast cancer MCF-10DCIS cell; assay: Luciferase activity assay in cell lysates; assay type: cell-based; conditions: MCF-10DCIS cell lysates, 24 h after nanoparticle incubation
Excerpt: as §1
Following different treatments, cells were collected from culture plates. Cell lysates were examined for luciferase activity using the Single Luciferase Assay System (Promega Corp., Madison, Wis.). The level of the luciferase activity was measured by a luminometer (Lumistar galaxy, BMG, Winooski, VM) for single samples or using the Xenogen IVIS system (Caliper Life Sciences, Mountain View, Calif.) for 96-well plates.

[4] = test system: luciferase positive MCF-10DCIS tumors; assay: Bioluminescence imaging of gene silencing in orthotopic breast cancer xenografts; assay type: in vivo, nude mice
Description: One of the major obstacles in applying siRNA technology to cancer therapy is the low delivery and gene silencing efficiencies in the tumor following systemic administration. To determine the gene silencing efficiency of uPAR-targeted siRNA expressing nanocassettes, hATF-QD-Luc siRNA nanocassettes were injected via the tail vein into nude mice bearing orthotopic luciferase positive MCF-10DCIS tumors. Non-invasive bioluminescence imaging was used at different time points to determine changes in the luciferase activity in the tumors. Twenty-four hours after the injection, the level of luciferase activity decreased by 42% in the mice that received hATF-QD-Luc siRNA nanocassettes.
To determine whether the changes in luciferase activity in the tumor were the result of specific silencing of the luciferase gene, mice bearing MCF-10DCIS tumors in the low abdominal mammary gland received a tail vein injection of either hATF-QD-Luc siRNA or hATF-QD-control siRNA nanocassettes. […] Therefore, the effect of down regulation of luciferase gene expression is likely due to the targeted delivery of luciferase siRNA-expressing nanocassettes into the tumor.

[5] = mouse, in vivo
Description: The tumor bearing mice then received 200 pmol of QDs carrying luciferase siRNA-expressing DNA cassettes (about 2 nmol of DNA cassettes) by tail vein injection. Before and at different time points following the nanoparticle administration, 2 mg/Kg of luciferin substrate was injected intraperitoneally into the mice for 5 min before each bioluminescence imaging procedure using identical imaging conditions and an Olympus OV-100 small animal imaging system (Olympus America Inc.).

Compound	viability at 1 µM ([1]; 1 μM gemcitabine, free drug treated group, read-out: percentage of viable cells) [%]	viability at 100 µM ([1]; 100 μM gemcitabine, 72 h, read-out: viable cells) [%]	entry into cells (intracellular delivery efficiency) [2]	luciferase activity [3]	decrease in level of luciferase activity in tumor ([4]; 24 h after tail vein injection, 200 pmol QDs) [%]	inhibitory effect on luciferase activity in tumor ([4]; 72 h after injection)	decrease in luciferase activity in the tumor ([4]; 72 h after injection, specificity experiment (FIG. 5C)) [%]	luciferase activity in tumor versus pre-injection ([4]; 140 h after injection)	inhibitory effect on luciferase activity in the tumor ([4]; 144 h after injection (FIG. 5C))	duration of inhibitory effect on luciferase activity ([4]; after tail vein injection)	levels of QD accumulation in the liver and spleen [5]
Nc1ccn([C@@H]2O[C@H](CO)[C@@H](O)C2(F)F)c(=O)n1 [gemcitabine]	94	60									
hATF-QD-Luc siRNA nanocassettes: U6-luciferase siRNA expressing DNA nanocassettes conjugated to QDs with human ATF targeting ligands			could efficiently enter	decrease in luciferase activity	42	further enhanced	> 90	returned to the pre-injection level	still strong	over 120 h	markedly decreased

Source: US9801953B2, “Nanoparticles carrying nucleic acid cassettes for expressing RNA” (EMORY UNIVERSITY, priority 2012, dated 2017)
